{
  "source": "patent US12486240B2",
  "about": "“Oxadiazole compounds for controlling or preventing phytopathogenic fungi” (PI INDUSTRIES LTD., priority 2019, dated 2025)",
  "key": {"Phakopsora pachyrhizi": {"system": "Phakopsora pachyrhizi", "assay": "Phakopsora pachyrhizi test on soybean (preventive spray)", "format": "in vivo", "settings": "preventive spray on soybean plants, inoculated one day after treatment, rated 3, 7, 10 and 15 days after application, read-out: Efficacy (% control) from disease severity rating versus untreated control", "description": "Example 5: Phakopsora pachyrhizi Test on Soybean Compounds were dissolved in 2% dimethyl sulfoxide/acetone and then mixed with water containing an emulsifier to a calibrated spray volume of 50 mL. This 50 mL spray solution was poured into spray bottles for further applications. To test the preventive activity of compounds, healthy young Soybean plants raised in the greenhouse were sprayed with the active compound preparation at the stated application rates inside the spray cabinets using hollow cone nozzles. One day after treatment, the plants were inoculated with a spore suspension containing 2×10^5 Phakopsora pachyrhizi conidia. The inoculated plants were then kept in a greenhouse chamber at 22-24° C. temperature and 80-90% relative humidity for disease expression. A visual assessment of the compound's performance was carried out by rating the disease severity (0-100% scale) on treated plants 3, 7, 10 and 15 days after application. Efficacy (% control) of the compounds was calculated by comparing the disease rating in the treatment with the one of the untreated control. The sprayed plants were also assessed for plant compatibility by recording symptoms like necrosis, chlorosis and stunting."}, "Rhizoctonia solani": {"system": "Rhizoctonia solani", "assay": "Rhizoctonia solani mycelial radial growth test on potato dextrose agar", "format": "cell-based", "settings": "300 ppm, 25° C., 60% relative humidity, seven days"}, "Botrytis cinerea": {"system": "Botrytis cinerea", "assay": "Botrytis cinerea mycelial radial growth test on potato dextrose agar", "format": "cell-based", "settings": "300 ppm, 22° C., 90% relative humidity, seven days"}},
  "data": [
    {"smiles": "CCN(C)c1c(Nc2ccc(-c3noc(C(F)(F)F)n3)cc2)c(=O)c1=O", "note": "[Compound 3, 3-(ethyl(methyl)amino)-4-((4-(5-(trifluoromethyl)-1,2,4-oxadiazol-3-yl)phenyl)amino)cyclobut-3-ene-1,2-dione]", "values": [
      {"measurement": "pest or weed control at 500 ppm", "setting": "Phakopsora pachyrhizi", "value": "≥ 70", "unit": "%"},
      {"measurement": "control (radial growth compared to untreated control)", "setting": "Rhizoctonia solani", "value": "≥ 70", "unit": "%"}
    ]},
    {"smiles": "COCCN(C)c1c(Nc2ccc(-c3noc(C(F)(F)F)n3)cc2)c(=O)c1=O", "note": "[Compound 7, 3-((2-methoxyethyl)(methyl)amino)-4-((4-(5-(trifluoromethyl)-1,2,4-oxadiazol-3-yl)phenyl)amino)cyclobut-3-ene-1,2-dione]", "values": [
      {"measurement": "control (radial growth compared to untreated control)", "setting": "Botrytis cinerea", "value": "≥ 70", "unit": "%"},
      {"measurement": "pest or weed control at 500 ppm", "setting": "Phakopsora pachyrhizi", "value": "≥ 70", "unit": "%"}
    ]},
    {"smiles": "CCN(C)c1c(N(C)Cc2ccc(-c3noc(C(F)(F)F)n3)cc2)c(=O)c1=O", "note": "[Compound 53, 3-(ethyl(methyl)amino)-4-(methyl(4-(5-(trifluoromethyl)-1,2,4-oxadiazol-3-yl)benzyl)amino)cyclobut-3-ene-1,2-dione]", "values": [
      {"measurement": "pest or weed control at 500 ppm", "setting": "Phakopsora pachyrhizi", "value": "≥ 70", "unit": "%"}
    ]},
    {"smiles": "COC1CCN(c2c(N(C)Cc3ccc(-c4noc(C(F)(F)F)n4)cc3)c(=O)c2=O)C1", "note": "(centres unmarked) [Compound 54, 3-(3-methoxypyrrolidin-1-yl)-4-(methyl(4-(5-(trifluoromethyl)-1,2,4-oxadiazol-3-yl)benzyl)amino)cyclobut-3-ene-1,2-dione]", "values": [
      {"measurement": "pest or weed control at 500 ppm", "setting": "Phakopsora pachyrhizi", "value": "≥ 70", "unit": "%"}
    ]},
    {"smiles": "CN(Cc1ccc(-c2noc(C(F)(F)F)n2)cc1)c1c(N2CCC(F)C2)c(=O)c1=O", "note": "(centres unmarked) [Compound 55, 3-(3-fluoropyrrolidin-1-yl)-4-(methyl(4-(5-(trifluoromethyl)-1,2,4-oxadiazol-3-yl)benzyl)amino)cyclobut-3-ene-1,2-dione]", "values": [
      {"measurement": "pest or weed control at 500 ppm", "setting": "Phakopsora pachyrhizi", "value": "≥ 70", "unit": "%"}
    ]},
    {"smiles": "C=CCNc1c(N(C)Cc2ccc(-c3noc(C(F)(F)F)n3)cc2)c(=O)c1=O", "note": "[Compound 56, 3-(allylamino)-4-(methyl(4-(5-(trifluoromethyl)-1,2,4-oxadiazol-3-yl)benzyl)amino)cyclobut-3-ene-1,2-dione]", "values": [
      {"measurement": "pest or weed control at 500 ppm", "setting": "Phakopsora pachyrhizi", "value": "≥ 70", "unit": "%"}
    ]}
  ]
}
